Data: patent publication US6358885B1, “Substituted phenylheterocyclic herbicides” (Mississippi State University, priority 1992, dated 2002)

Key:
barnyardgrass = assay: Test B preemergence/postemergence greenhouse plant response rating 0 to 10; format: in vivo, Echinochloa crus-galli; settings: 0 to 10 scale
Method in brief: (§1)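 Postemergence treatment of plants two to eighteen cm tall ran alongside preemergence treatment of planted seed, each using compound in a non-phytotoxic solvent.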

cheatgrass = assay: as above; format: in vivo, Bromus secalinus; settings: 0 to 10 scale
Method in brief: as §1

chickweed = assay: as above; format: in vivo, Stellaria media; settings: 0 to 10 scale
Method in brief: as §1

corn = assay: as above; format: in vivo, Zea mays; settings: 0 to 10 scale
Method in brief: as §1

crabgrass = assay: as above; format: in vivo, Digitaria spp.; settings: 0 to 10 scale
Method in brief: as §1

giant foxtail = assay: as above; format: in vivo, Setaria faberii; settings: 0 to 10 scale
Method in brief: as §1

morningglory [1] = assay: as above; format: in vivo, Ipomoea hederacea; settings: 0 to 10 scale
Method in brief: as §1

rape = assay: as above; format: in vivo, Brassica napus; settings: 0 to 10 scale
Method in brief: as §1

velvetleaf = assay: as above; format: in vivo, Abutilon theophrasti; settings: 0 to 10 scale
Method in brief: as §1

barley = assay: Test C preemergence/postemergence greenhouse plant response rating 0 to 100; format: in vivo, Hordeum vulgare; settings: POSTEMERGENCE; for Plant response rating Barley Igri: 0 to 100 scale
Source text: (§2) The compounds evaluated in this test were formulated in a non-phytoxic solvent and applied to the soil surface before plant seedlings emerged (preemergence application), to water that covered the soil surface (flood application), and to plants that were in the one-to-four leaf stage (postemergence application). A sandy loam soil was used for the preemergence and postemergence tests, while a silt loam soil was used in the flood test. Water depth was approximately 2.5 cm for the flood test and was maintained at this level for the duration of the test. Plant species in the preemergence and postemergence tests consisted of barley (Hordeum vulgare), bedstraw (Galium aparine), blackgrass (Alopecurus myosuroides), chickweed (Stellaria media), corn (Zea mays), cotton (Gossypium hirsutum), crabgrass (Digitaria sanguinalis), downy brome (Bromus tectorum), giant foxtail (Setaria faberii), lambsquarters (Chenopodium album), morningglory (Ipomoea hederacea), pigweed ([…]), rape (Brassica napus), ryegrass (Lolium multiflorum), sorghum (Sorghum bicolor), soybean (Glycine max), speedwell (Veronica persica), sugar beet (Beta vulgaris), velvetleaf (Abutilon theophrasti), wheat (Triticum aestivum), wild buckwheat (Polygonum convolvulus), and wild oat (Avena fatua). All plant species were planted one day before application of the compound for the preemergence portion-of this test. Plantings of these species were adjusted to produce plants of appropriate size for the post-emergence portion of the test. […] All plant species were grown using normal greenhouse practices. Visual evaluations of injury expressed on treated plants, when compared to untreated controls, were recorded approximately fourteen to twenty one days after application of the test compound. […] A dash (-) response means no test result.

lambsquarters = assay: as above; format: in vivo, Chenopodium album; settings: POSTEMERGENCE; for Plant response rating Lambsquarters: 0 to 100 scale
Source text: as §2

morningglory [2] = assay: as above; format: in vivo, Ipomoea hederacea; settings: POSTEMERGENCE; for Plant response rating, Morningglory: 0 to 100 scale
Source text: as §2

soybean = assay: as above; format: in vivo, Glycine max; settings: POSTEMERGENCE; for Plant response rating, Soybean: 0 to 100 scale
Source text: as §2

CC(C)OC(=O)COc1cc(-c2nn3c(c2Cl)CCCC3)c(F)cc1Cl [Compound 39]
Plant response rating, Barnyardgrass (barnyardgrass; POSTEMERGENCE, Rate 50 g/ha): 4
Plant response rating, Barnyardgrass (barnyardgrass; POSTEMERGENCE, Rate 200 g/ha): 6
Plant response rating, Barnyardgrass (barnyardgrass; PREEMERGENCE, Rate 50 g/ha): 0
Plant response rating, Barnyardgrass (barnyardgrass; Rate 200 g/ha, PREEMERGENCE): 2
Plant response rating, Cheatgrass (cheatgrass; POSTEMERGENCE, Rate 50 g/ha): 4
Plant response rating, Cheatgrass (cheatgrass; POSTEMERGENCE, Rate 200 g/ha): 4
Plant response rating, Cheatgrass (cheatgrass; PREEMERGENCE, Rate 50 g/ha): 0
Plant response rating, Cheatgrass (cheatgrass; Rate 200 g/ha, PREEMERGENCE): 2
Plant response rating, Chickweed (chickweed; POSTEMERGENCE, Rate 50 g/ha): 8
Plant response rating, Chickweed (chickweed; POSTEMERGENCE, Rate 200 g/ha): 10
Plant response rating, Chickweed (chickweed; PREEMERGENCE, Rate 50 g/ha): 0
Plant response rating, Chickweed (chickweed; Rate 200 g/ha, PREEMERGENCE): 5
Plant response rating, Corn (corn; POSTEMERGENCE, Rate 50 g/ha): 5
Plant response rating, Corn (corn; POSTEMERGENCE, Rate 200 g/ha): 5
Plant response rating, Corn (corn; PREEMERGENCE, Rate 50 g/ha): 0
Plant response rating, Corn (corn; Rate 200 g/ha, PREEMERGENCE): 0
Plant response rating, Crabgrass (crabgrass; POSTEMERGENCE, Rate 50 g/ha): 5
Plant response rating, Crabgrass (crabgrass; POSTEMERGENCE, Rate 200 g/ha): 4
Plant response rating, Crabgrass (crabgrass; PREEMERGENCE, Rate 50 g/ha): 0
Plant response rating, Crabgrass (crabgrass; Rate 200 g/ha, PREEMERGENCE): 2
Plant response rating, Giant foxtail (giant foxtail; POSTEMERGENCE, Rate 50 g/ha): 4
Plant response rating, Giant foxtail (giant foxtail; PREEMERGENCE, Rate 50 g/ha): 5
Plant response rating, Giant foxtail (giant foxtail; Rate 200 g/ha, POSTEMERGENCE): 5
Plant response rating, Giant foxtail (giant foxtail; Rate 200 g/ha, PREEMERGENCE): 2
Plant response rating, Morningglory (morningglory [1]; POSTEMERGENCE, Rate 50 g/ha): 8
Plant response rating, Morningglory (morningglory [1]; PREEMERGENCE, Rate 50 g/ha): 0
Plant response rating, Morningglory (morningglory [1]; Rate 200 g/ha, POSTEMERGENCE): 9
Plant response rating, Morningglory (morningglory [1]; Rate 200 g/ha, PREEMERGENCE): 2
Plant response rating, Rape (rape; POSTEMERGENCE, Rate 50 g/ha): 5
Plant response rating, Rape (rape; PREEMERGENCE, Rate 50 g/ha): 8
Plant response rating, Rape (rape; Rate 200 g/ha, POSTEMERGENCE): 10
Plant response rating, Rape (rape; Rate 200 g/ha, PREEMERGENCE): 10
Plant response rating, Velvetleaf (velvetleaf; POSTEMERGENCE, Rate 50 g/ha): 9
Plant response rating, Velvetleaf (velvetleaf; PREEMERGENCE, Rate 50 g/ha): 2
Plant response rating, Velvetleaf (velvetleaf; Rate 200 g/ha, POSTEMERGENCE): 10
Plant response rating, Velvetleaf (velvetleaf; Rate 200 g/ha, PREEMERGENCE): 4
Plant response rating Barley Igri (barley; 62 g/ha): 30
Plant response rating Barley Igri (barley; 125 g/ha): 40
Plant response rating (0 to 100), Barley Igri (barley; Rate 16 g/ha): 20
Plant response rating (0 to 100), Barley Igri (barley; Rate 31 g/ha): 30
Plant response rating Lambsquarters (lambsquarters; 62 g/ha): 100
Plant response rating Lambsquarters (lambsquarters; 125 g/ha): 100
Plant response rating (0 to 100), Lambsquarters (lambsquarters; Rate 16 g/ha): 70
Plant response rating (0 to 100), Lambsquarters (lambsquarters; Rate 31 g/ha): 100
Plant response rating, Morningglory (morningglory [2]; 62 g/ha): 100
Plant response rating, Morningglory (morningglory [2]; 125 g/ha): 100
Plant response rating (0 to 100), Morningglory (morningglory [2]; Rate 16 g/ha): 60
Plant response rating (0 to 100), Morningglory (morningglory [2]; Rate 31 g/ha): 100
Plant response rating, Soybean (soybean; 62 g/ha): 60
Plant response rating, Soybean (soybean; 125 g/ha): 70
Plant response rating (0 to 100), Soybean (soybean; Rate 16 g/ha): 30
Plant response rating (0 to 100), Soybean (soybean; Rate 31 g/ha): 50

C=C(Cl)COc1cc(-c2nn3c(c2Cl)CCCC3)c(F)cc1Cl [Compound 40]
Plant response rating, Barnyardgrass (barnyardgrass; POSTEMERGENCE, Rate 50 g/ha): 4
Plant response rating, Barnyardgrass (barnyardgrass; POSTEMERGENCE, Rate 200 g/ha): 4
Plant response rating, Barnyardgrass (barnyardgrass; PREEMERGENCE, Rate 50 g/ha): 1
Plant response rating, Barnyardgrass (barnyardgrass; Rate 200 g/ha, PREEMERGENCE): 3
Plant response rating, Cheatgrass (cheatgrass; POSTEMERGENCE, Rate 50 g/ha): 4
Plant response rating, Cheatgrass (cheatgrass; POSTEMERGENCE, Rate 200 g/ha): 4
Plant response rating, Cheatgrass (cheatgrass; PREEMERGENCE, Rate 50 g/ha): 0
Plant response rating, Cheatgrass (cheatgrass; Rate 200 g/ha, PREEMERGENCE): 4
Plant response rating, Chickweed (chickweed; POSTEMERGENCE, Rate 50 g/ha): 10
Plant response rating, Chickweed (chickweed; POSTEMERGENCE, Rate 200 g/ha): 10
Plant response rating, Chickweed (chickweed; PREEMERGENCE, Rate 50 g/ha): 0
Plant response rating, Chickweed (chickweed; Rate 200 g/ha, PREEMERGENCE): 5
Plant response rating, Corn (corn; POSTEMERGENCE, Rate 50 g/ha): 4
Plant response rating, Corn (corn; POSTEMERGENCE, Rate 200 g/ha): 5
Plant response rating, Corn (corn; PREEMERGENCE, Rate 50 g/ha): 0
Plant response rating, Corn (corn; Rate 200 g/ha, PREEMERGENCE): 1
Plant response rating, Crabgrass (crabgrass; POSTEMERGENCE, Rate 50 g/ha): 4
Plant response rating, Crabgrass (crabgrass; POSTEMERGENCE, Rate 200 g/ha): 5
Plant response rating, Crabgrass (crabgrass; PREEMERGENCE, Rate 50 g/ha): 0
Plant response rating, Crabgrass (crabgrass; Rate 200 g/ha, PREEMERGENCE): 8
Plant response rating, Giant foxtail (giant foxtail; POSTEMERGENCE, Rate 50 g/ha): 5
Plant response rating, Giant foxtail (giant foxtail; PREEMERGENCE, Rate 50 g/ha): 9
Plant response rating, Giant foxtail (giant foxtail; Rate 200 g/ha, POSTEMERGENCE): 6
Plant response rating, Giant foxtail (giant foxtail; Rate 200 g/ha, PREEMERGENCE): 9
Plant response rating, Morningglory (morningglory [1]; POSTEMERGENCE, Rate 50 g/ha): 3
Plant response rating, Morningglory (morningglory [1]; PREEMERGENCE, Rate 50 g/ha): 1
Plant response rating, Morningglory (morningglory [1]; Rate 200 g/ha, POSTEMERGENCE): 9
Plant response rating, Morningglory (morningglory [1]; Rate 200 g/ha, PREEMERGENCE): 4
Plant response rating, Rape (rape; POSTEMERGENCE, Rate 50 g/ha): 4
Plant response rating, Rape (rape; PREEMERGENCE, Rate 50 g/ha): 8
Plant response rating, Rape (rape; Rate 200 g/ha, POSTEMERGENCE): 8
Plant response rating, Rape (rape; Rate 200 g/ha, PREEMERGENCE): 6
Plant response rating, Velvetleaf (velvetleaf; POSTEMERGENCE, Rate 50 g/ha): 2
Plant response rating, Velvetleaf (velvetleaf; PREEMERGENCE, Rate 50 g/ha): 2
Plant response rating, Velvetleaf (velvetleaf; Rate 200 g/ha, POSTEMERGENCE): 10
Plant response rating, Velvetleaf (velvetleaf; Rate 200 g/ha, PREEMERGENCE): 8
Plant response rating Barley Igri (barley; 62 g/ha): 30
Plant response rating Barley Igri (barley; 125 g/ha): 40
Plant response rating (0 to 100), Barley Igri (barley; Rate 16 g/ha): 20
Plant response rating (0 to 100), Barley Igri (barley; Rate 31 g/ha): 30
Plant response rating Lambsquarters (lambsquarters; 62 g/ha): 80
Plant response rating Lambsquarters (lambsquarters; 125 g/ha): 100
Plant response rating (0 to 100), Lambsquarters (lambsquarters; Rate 16 g/ha): 70
Plant response rating (0 to 100), Lambsquarters (lambsquarters; Rate 31 g/ha): 70
Plant response rating, Morningglory (morningglory [2]; 62 g/ha): 50
Plant response rating, Morningglory (morningglory [2]; 125 g/ha): 70
Plant response rating (0 to 100), Morningglory (morningglory [2]; Rate 16 g/ha): 50
Plant response rating (0 to 100), Morningglory (morningglory [2]; Rate 31 g/ha): 50
Plant response rating, Soybean (soybean; 62 g/ha): 50
Plant response rating, Soybean (soybean; 125 g/ha): 60
Plant response rating (0 to 100), Soybean (soybean; Rate 16 g/ha): 40
Plant response rating (0 to 100), Soybean (soybean; Rate 31 g/ha): 40
